Reference: patent US10456405B2, “Nitric oxide-releasing prodrug molecule of substituted quinazolines” (ZHEJIANG HUAHAI PHARMACEUTICAL CO., LTD, priority 2015, dated 2019)
Each block holds one molecule with its values, some of them ahead of it.

Legend:
[1] = Release of nitric oxide in vitro (Griess reagent, nitrite); settings: for Amount of Released No: 10^−4 mol/L tested substance, phosphate buffer pH 7.4, cysteine 5 mmol/L, 37° C., 1 h, as nitrite
Protocol: Experiment 1. Experimental Study on the Tested Compounds for Releasing Nitric Oxide in vitro
Experimental Procedure: • (1) Preparation of Griess Reagent: 4 g of aminobenzenesulfonamide, 0.2 g of N-naphthyl ethylene diamine hydrochloride, and 10 mL of 85% phosphoric acid solution were taken to form a solution, which is diluted to 100 mL with distilled water. • (2) Plotting of the standard curve: a serie of standard solution of 0.01, 0.03, 0.05, 0.07, 0.09, 0.2, 0.4 μg/mL of nitrite nitrogen was prepared, 10 mL of each was taken to sufficiently mix with 2.5 mL of Griess reagent, standing at room temperature for 10 min, and its absorbance value at the wavelength of 540 nm was measured. The standard curve was plotted based on the resulting data. • (3) Measuring the amount of the released NO of the tested drug: all of the tested substances were dissolved in dimethylsulfoxide (1 mL) firstly. Then phosphate buffer (pH 7.4) was slowly added dropwise, and shaken. The drug solution was diluted to 50 mL, allowing the buffer solution to contain excess cysteine (5 mmol/L), and the final concentration of the tested substances being 10^−4 mol/L; the solution was incubated at 37° C. 2 mL of the reaction solution was taken to mix with 500 μl of Griess reagent at 1 h respectively, standing at room temperature for 10 min. The absorbance value of the mixture at 540 nm was measured. Isosorbide mononitrate was used as a positive control, and H130 was used as a negative control. The amount of the released NO was represented by the amount of its oxidation product, nitrite (NO2^−).

[2] = Plasma stability in vitro, human plasma; settings: for Content of Tested Substance (n = 2): human plasma, 2 μM, 37° C., in % (unit assumed); for stability in human plasma: within 2 h
Protocol: (§1) Experimental method: The tested compounds (2 μM) were added into mouse or human plasma, and incubated at 37° C. Samples were taken at 0, 10, 30, 60 and 120 min respectively. The reaction was stopped by adding a stop agent. The mixture was sufficient shaken, and centrifuged at 4000 rpm for 10 min at 4° C. The supernatant was taken. The concentrations of the tested compounds and their metabolite (H130) in the supernatant were measured by LC-MS/MS.

[3] = Release of HNO (headspace gas chromatography of nitrous oxide); settings: for Molar Quantities of N2O/Sample: PBS pH 7.4, 37° C., argon, 90 min
Protocol: Experiment 2. Experimental study on the tested compounds for releasing HNO HNO rapidly dimerizes and dehydrates to produce nitrous oxide in aqueous solution. In the experiment of detecting HNO, gas chromatographic headspace analysis is generally used to determine the amount of the released nitrous oxide, thereby indirectly detect the level of releasing HNO of the compound.
Experimental procedure: Each of the tested compounds was prepared to 20 mg/mL of mother liquor with DMF. Prior to the start of the experiment, 50 μL of drug mother liquor was placed into a 20 mL headspace sample vial. The tested compound was diluted by adding 5 mL of PBS buffer with pH 7.4. The temperature of the resulting sample was kept at 37° C. under argon gas for 90 min. Then the top gas was extracted for gas chromatographic analysis of nitrous oxide by using Angeli's Salt as a positive compound in the experiment.

[4] = Plasma stability in vitro, mouse plasma; settings: CD-1 mice plasma, 2 μM, 37° C., in % (unit assumed)
Protocol: as §1

apoE−/− mice = assay: apoE−/− mouse atherosclerosis model, high-fat diet 10 weeks; assay type: in vivo
Text: Experimental method: 36 eight-week-old male apoE-/- mice were selected and randomly divided into a blank administration group, an […] administration group, an […] administration group, an […] administration group, an […] administration group, and an […] administration group, 6 mice per group. The mice in each group were fed with high-fat diet for 10 weeks. At the beginning of the high-fat feeding, the mice in each group were administrated. Each tested compound was intragastric administered at the dose of 150 mg/kg twice a day. The blank administration group was given corresponding dose of saline. […] After the blood was taken, the serum, heart, and aorta were isolated. The levels of total cholesterol (TC), high density lipoprotein cholesterol (HDL-C), and low density lipoprotein cholesterol (LDL-C) in the serum of the mice in each group were measured by automatic biochemical analyzer. The ApoA1 expression level was detected with an ApoA1 kit. The content of NO in the serum of the mice was determined with a total NO test kit (Beyotime). The NOS activities of the heart, aorta, and serum were determined with an NOS test kit (Beyotime). The content of eNOS was calculated by the difference between the measured values determined before and after adding eNOS inhibitor L-NAME (Beyotime).

db/db mice = assay: Serum NO and heart eNOS in db/db mice after oral gavage; assay type: in vivo; settings: blank = 100, oral gavage 150 mg/kg (isosorbide mononitrate 5 mg/kg), 1 h after administration (H101: 2 h)
Text: Experimental method: 25 eight-week-old db/db mice (strain: BKS.Cg−+Leprdb/+leprdb/JclSlac; grade: SPF; gender: male; source: Shanghai SLAC Laboratory Animal Co., Ltd.) were selected. 3 of them were selected as the blank administration control. 2 mice were used as the positive drug control (isosorbide mononitrate). The remaining 20 mice were randomly divided into 5 groups, 4 mice per group, which are H101 administration group, H111 administration group, H116 administration group, H119 administration group, and H130 administration group. The tested compounds of the positive drug control group and each administration group were dissolved in DMSO. Then PEG400 was added. The mixture was shaken and mixed thoroughly. At last, 10% of HP-β-CD was added. The mixture was shaken and mixed thoroughly. The ratio of each solvent was DMSO: PEG400:10% of HP-β-CD=5:67.5:27.5. The administration group was administered by oral gavage at the dose of 150 mg/kg. The positive drug control group was administered at the dose of 5 mg/kg. The mice in the H101 administration group were sacrificed at 2 h after the administration. The mice in the remaining administration groups were sacrificed at 1 h after the administration. The blood was collected respectively into 1.5 mL centrifuge tube, standing at room temperature for more than 30 min, and then centrifuged (3000 rpm, 10 min). The supernatant serum was aspirated, and stored at −80° C. for testing. After the blood was collected, the heart was cut with the thoracic aorta. Three parts of the heart were weighed and placed into cryovials, rapidly frozen in liquid nitrogen, and cryopreserved at −80° C. for testing. The aorta and aortic arch were weighed, rapidly frozen in liquid nitrogen, and cryopreserved at −80° C. for testing. The content of NO in the serum of the […] mice was determined by a total NO test kit (Beyotime). The content of NOS in the heart of the mice was determined with an NOS test kit (Beyotime). The content of eNOS was calculated by the difference between the measured values before and after adding the eNOS inhibitor L-NAME (Beyotime).

[5] = blank administration group = 100, 150 mg/kg twice a day, 10 weeks
[6] = serum, high-fat diet 10 weeks, intragastric 150 mg/kg twice a day

Molecule: COc1cc(OC)c2c(=O)[nH]c(-c3cc(C)c(OCCOC(=O)NC4COC5C(O[N+](=O)[O-])COC45)c(C)c3)nc2c1 (centres unmarked) [Compound H120, 2-[4-(5,7-dimethoxy-4-oxo-3,4-dihydro-quinazolin-2-yl)-2,6-dimethyl-phenoxy]-ethyl (6-nitroxy-hexahydrofuro[3,2-b]furan-3-yl)-carbamate]
- Amount of Released No [1]: 1.32 µM

- Content of Tested Substance (n = 2) ([2]; 0 min): 100.0
- Content of Tested Substance (n = 2) ([2]; 10 min): 97.3
- Content of Tested Substance (n = 2) ([2]; 30 min): 89.6
- Content of Tested Substance (n = 2) ([2]; 60 min): 83.3
- Content of Tested Substance (n = 2) ([2]; 120 min): 86.9
- stability in human plasma [2]: good stability
- Content of Tested Substance (n = 2) ([4]; 0 min): 100.0
- Content of Tested Substance (n = 2) ([4]; 10 min): 0.0
- Content of Tested Substance (n = 2) ([4]; 30 min): 0.0
- Content of Tested Substance (n = 2) ([4]; 60 min): 0.0
- Content of Tested Substance (n = 2) ([4]; 120 min): 0.0
Molecule: COc1cc(OC)c2c(=O)[nH]c(-c3cc(C)c(OCCOC(=O)ONS(=O)(=O)c4ccc(C)s4)c(C)c3)nc2c1 [Compound H103, N-((2-(4-(5,7-dimethoxy-4-oxo-3,4-dihydroquinazolin-2-yl)-2,6-dimethylphenoxy)ethoxy)carbonyloxy)-5-methylthiophene-2-sulfonamide]
- Molar Quantities of N2O/Sample [3]: 19.7%

Molecule: COc1cc(OC)c2c(=O)[nH]c(-c3cc(C)c(OCCOC(=O)/C=C/C(=O)ONS(=O)(=O)c4ccco4)c(C)c3)nc2c1 [Compound H115, 2-[4-(5,7-dimethoxy-4-oxo-3,4-dihydro-quinazolin-2-yl)-2,6-dimethyl-phenoxy]-ethyl (E)-4-((furan-2-sulfonylamino)oxy)-4-oxo-2-crotonate]
- Molar Quantities of N2O/Sample [3]: 17.8%

Molecule: COc1cc(OC)c2c(=O)[nH]c(-c3cc(C)c(OCCOC(=O)CCC(=O)ONS(=O)(=O)c4ccc(Cl)s4)c(C)c3)nc2c1 [Compound H121, 2-[4-(5,7-dimethoxy-4-oxo-3,4-dihydro-quinazolin-2-yl)-2,6-dimethyl-phenoxy]-ethyl 4-(((5-chlorothiophene)-2-sulfonylamino)oxy)-4-oxo-butyrate]
- Molar Quantities of N2O/Sample [3]: 24.6%

Molecule: [Na+].[Na+].[O-][N+]([O-])=NO [Angeli's Salt, reference compound]
- Molar Quantities of N2O/Sample [3]: 62.4%

Molecule: COc1cc(OC)c2c(=O)[nH]c(-c3cc(C)c(OCCO)c(C)c3)nc2c1 [Compound H130, 2-(4-(2-hydroxyethoxy)-3,5-dimethylphenyl)-5,7-dimethoxyquinazoline-4(3H)-one, reference compound]
- Aorta eNOS (apoE−/− mice; [5]): 105%
- ApoA1 (apoE−/− mice; [5]): 130%
- Heart eNOS (apoE−/− mice; [5]): 115%
- Serum NO (apoE−/− mice; [5]): 108%
- Serum eNOS (apoE−/− mice; [5]): 107%
- HDL-C (apoE−/− mice; [6]): 86 ± 13 mg/dL
- LDL-C (apoE−/− mice; [6]): 273 ± 33 mg/dL
- TC (apoE−/− mice; [6]): 1005 ± 44 mg/dL
- Amount of Released No [1]: -1.03 µM
- Heart eNOS (db/db mice): 123%
- Serum NO (db/db mice): 111%
- Molar Quantities of N2O/Sample [3]: −0.15%
- HNO release detected ([3]; within 1.5 h): no HNO release can be detected

Molecule: COc1cc(OC)c2c(=O)[nH]c(-c3cc(C)c(OCCOC(=O)C(O)CC(=O)OCc4c(-c5ccccc5)no[n+]4[O-])c(C)c3)nc2c1 (centres unmarked) [Compound H113, 2-[4-(5,7-dimethoxy-4-oxo-3,4-dihydro-quinazolin-2-yl)-2,6-dimethyl-phenoxy]-ethyl (2-oxo-4-phenyl-furazan-3-yl)-methyl 2-hydroxy succinate]
- Amount of Released No [1]: 45.63 µM

- Content of Tested Substance (n = 2) ([2]; 0 min): 100.0
- Content of Tested Substance (n = 2) ([2]; 10 min): 101.5
- Content of Tested Substance (n = 2) ([2]; 30 min): 98.4
- Content of Tested Substance (n = 2) ([2]; 60 min): 95.0
- Content of Tested Substance (n = 2) ([2]; 120 min): 84.5
- stability in human plasma [2]: good stability
- Content of Tested Substance (n = 2) ([4]; 0 min): 100.0
- Content of Tested Substance (n = 2) ([4]; 10 min): 10.8
- Content of Tested Substance (n = 2) ([4]; 30 min): 1.3
- Content of Tested Substance (n = 2) ([4]; 60 min): 3.1
- Content of Tested Substance (n = 2) ([4]; 120 min): 1.8
Molecule: COc1cc(OC)c2c(=O)[nH]c(-c3cc(C)c(OCCOC(=O)c4cccc(CO[N+](=O)[O-])c4)c(C)c3)nc2c1 [Compound H102, 2-[4-(5,7-dimethoxy-4-oxo-3,4-dihydro-quinazolin-2-yl)-2,6-dimethyl-phenoxy]-ethyl 3-nitroxymethyl-benzoate]
- time after which NO is produced [1]: ≥ 2 h
- Amount of Released No [1]: -0.55 µM
- NO release detected within 1 h ([1]; within 1 h): does not produce NO within 1 h

Molecule: 3-(nitroxy)-2,2-di(nitroxymethyl) propyl 4-(2-[4-(5,7-dimethoxy-4-oxo-3,4-dihydro-quinazolin-2-yl)-2,6-dimethyl-phenoxy] butyl)-4-oxo-2-acetamino-butyrate [Compound H124]
- Amount of Released No [1]: 2.89 µM

Molecule: 2-(N-((2-(4-(5,7-dimethoxy-4-oxo-3,4-dihydro-quinazolin-2-yl)-2,6-dimethyl-phenoxy]-ethoxy) carbonyl)oxy)sulfamoyl)-1-methyl-1H-pyridine 1-2-onium salt [Compound H122]
- Molar Quantities of N2O/Sample [3]: 18.3%

Molecule: COc1cc(OC)c2c(=O)[nH]c(-c3cc(C)c(OCCOC(=O)CCC(=O)N4CCN(CCO[N+](=O)[O-])CC4)c(C)c3)nc2c1 [Compound H117, 2-[4-(5,7-dimethoxy-4-oxo-3,4-dihydro-quinazolin-2-yl)-2,6-dimethyl-phenoxy]-ethyl 4-[4-(2-(nitroxy)ethyl)-piperazin-1-ly]-4-oxo-butyrate]
- Amount of Released No [1]: 1.36 µM
